{"source": "ChEMBL document CHEMBL1131853", "about": "(Bioorg Med Chem Lett, 1999)", "key": {"[1]": {"test": "Effect on low-threshold (T-type) Calcium current in primary cultured rat cerebrocortical neurons", "format": "functional"}, "[2]": {"tested_on": "Mus musculus", "test": "Compound was tested in vivo for anticonvulsant activity in DBA/2 mice by i.p. administration", "format": "functional", "conditions": "ip"}, "[3]": {"target": "D(2) dopamine receptor (Rattus norvegicus, UniProt P61169)", "sequence (P61169 whole entry)": "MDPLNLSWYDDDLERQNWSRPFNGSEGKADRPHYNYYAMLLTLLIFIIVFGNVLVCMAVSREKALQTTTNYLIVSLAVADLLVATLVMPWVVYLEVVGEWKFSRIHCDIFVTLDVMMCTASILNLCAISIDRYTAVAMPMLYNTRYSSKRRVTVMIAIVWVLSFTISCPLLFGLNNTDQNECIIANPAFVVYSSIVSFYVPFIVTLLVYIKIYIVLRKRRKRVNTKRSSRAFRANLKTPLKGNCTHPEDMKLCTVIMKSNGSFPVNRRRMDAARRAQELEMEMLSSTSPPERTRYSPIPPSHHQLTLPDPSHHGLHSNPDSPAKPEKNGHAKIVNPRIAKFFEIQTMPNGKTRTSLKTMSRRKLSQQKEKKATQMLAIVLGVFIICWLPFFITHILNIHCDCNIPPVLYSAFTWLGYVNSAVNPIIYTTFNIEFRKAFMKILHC", "test": "Inhibition of [3H]raclopride binding to Dopamine receptor D2 of rat striatum membranes", "format": "cell membranes, Membrane"}, "[4]": {"target": "Sodium channel alpha subunits; brain (Types I, II, III) (Rattus norvegicus, UniProt P04775+P04774+P08104)", "test": "Inhibition of veratridine-induced depolarization in rat cerebrocortical synaptosomes using the voltage sensitive fluorescent dye Rhodamine 6G", "format": "functional, subcellular"}}}
{"smiles": "Cl.O[C@@H](COc1ccccc1)CN1CCC(c2ccc(Oc3ccccc3)cc2)CC1", "values": [{"measurement": "IC50", "setting": "[1]", "value": 2700, "unit": "nM"}, {"measurement": "ED50", "setting": "[2]", "value": 2.5, "unit": "mg/kg"}, {"measurement": "IC50", "setting": "[3]", "value": 4080, "unit": "nM"}, {"measurement": "IC50", "setting": "[4]", "value": 120, "unit": "nM"}]}
{"smiles": "Cl.OC(COc1ccccc1)CN1CCC(c2ccc(Cc3ccc(F)cc3)cc2)CC1", "note": "(centres undefined)", "values": [{"measurement": "IC50", "setting": "[1]", "value": 800, "unit": "nM"}, {"measurement": "ED50", "setting": "[2]", "value": 7.5, "unit": "mg/kg"}, {"measurement": "IC50", "setting": "[3]", "value": "> 10000", "unit": "nM"}, {"measurement": "IC50", "setting": "[4]", "value": 360, "unit": "nM"}]}
{"smiles": "Cl.OC(COc1ccccc1)CN1CCC(c2ccc(Oc3ccccc3)cc2)CC1", "note": "(centres undefined)", "values": [{"measurement": "IC50", "setting": "[1]", "value": 3500, "unit": "nM"}, {"measurement": "ED50", "setting": "[2]", "value": 5, "unit": "mg/kg"}, {"measurement": "IC50", "setting": "[3]", "value": 4640, "unit": "nM"}, {"measurement": "IC50", "setting": "[4]", "value": 220, "unit": "nM"}]}
{"smiles": "Fc1ccc(C(c2ccc(F)cc2)N2CCN(C/C=C/c3ccccc3)CC2)cc1", "note": "[FLUNARIZINE]", "values": [{"measurement": "IC50", "setting": "[1]", "value": 2200, "unit": "nM"}, {"measurement": "ED50", "setting": "[2]", "value": 6.4, "unit": "mg/kg"}]}
{"smiles": "Cl.O[C@H](COc1ccccc1)CN1CCC(c2ccc(Oc3ccccc3)cc2)CC1", "values": [{"measurement": "IC50", "setting": "[1]", "value": 2000, "unit": "nM"}, {"measurement": "ED50", "setting": "[2]", "value": 2.5, "unit": "mg/kg"}, {"measurement": "IC50", "setting": "[3]", "value": 4340, "unit": "nM"}, {"measurement": "IC50", "setting": "[4]", "value": 130, "unit": "nM"}]}
{"smiles": "Cl.Fc1ccc(Cc2ccc(C3CCN(C/C=C/c4ccccc4)CC3)cc2)cc1", "values": [{"measurement": "IC50", "setting": "[1]", "value": 600, "unit": "nM"}, {"measurement": "ED50", "setting": "[2]", "value": 2.2, "unit": "mg/kg"}, {"measurement": "IC50", "setting": "[4]", "value": 190, "unit": "nM"}]}
{"smiles": "C(=C\\c1ccccc1)/CN1CCC(c2ccc(Oc3ccccc3)cc2)CC1.Cl", "values": [{"measurement": "IC50", "setting": "[1]", "value": 800, "unit": "nM"}, {"measurement": "ED50", "setting": "[2]", "value": 4.2, "unit": "mg/kg"}, {"measurement": "IC50", "setting": "[4]", "value": 320, "unit": "nM"}]}
